Target: SULT1A1 (Homo sapiens, UniProt P50225)
Assay: inhibition of sulfonation of […]C-p-nitrophenol by recombinant enzyme
Type: biochemical

Sequence of SULT1A1 (P50225 whole entry): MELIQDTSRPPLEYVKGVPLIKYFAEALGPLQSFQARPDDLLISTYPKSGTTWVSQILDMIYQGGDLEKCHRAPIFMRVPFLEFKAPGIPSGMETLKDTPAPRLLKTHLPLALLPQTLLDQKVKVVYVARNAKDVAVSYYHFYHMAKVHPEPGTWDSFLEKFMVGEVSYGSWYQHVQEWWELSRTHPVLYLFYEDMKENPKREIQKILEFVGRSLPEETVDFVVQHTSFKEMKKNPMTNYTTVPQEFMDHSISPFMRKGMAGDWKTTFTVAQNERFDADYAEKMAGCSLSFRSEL

SMILES: Cc1ccc(-c2cc(C(F)(F)F)nn2-c2ccc(S(N)(=O)=O)cc2)cc1 [celecoxib]
- IC50: 2100 nM

Reference: publication PMC5554727 (The Journal of steroid biochemistry and molecular biology, 2017)
